From patent US9000162B2, “5,8-difluoro-4-(2-(4-(heteroaryloxy)-phenyl)ethylamino)quinazolines and their use as agrochemicals” (Dow AgroSciences LLC, priority 2008, dated 2015) come the findings set out here.

Holding throughout (format): in vivo
The test system of assay [1] is Pseudoperonospora cubensis (PSPECU). Nature of the assay: Cucumber downy mildew foliar protectant test. As to conditions: 200 ppm foliar, inoculated one day after treatment, read-out: Activity against fungal diseases PSPECU. As for the experimental part:
The plants were inoculated with the fungus one day after treatment. ***=80-100% control; **=50-79% control; *=0-49% control. It will be understood by those in the art that the efficacy of the compounds against the foregoing fungi establishes the general utility of the compounds as fungicides. The activity of the compounds as effective fungicides was determined by applying the compounds to plants and observing control of fungal disease. […] All plants were inoculated with spores of the fungus the day after treatment, then incubated in an environment conducive to disease development. Disease severity was evaluated 4 to 25 days later, depending on the speed of disease development. The following experiments were performed in the laboratory to determine the fungicidal efficacy of the compounds of the invention. Cucumber Downy Mildew (Causal Agent Pseudoperonospora cubensis; Bayer Code […]): Cucumber plants (variety “Bush Champion' or 'Bush Pickle Hybrid') were grown from seed in a soil-less peat-based potting mixture (Metromix) until the first true leaf was 20-80% expanded. Each pot contained 1 seedling. These plants were sprayed until wet with the formulated test compound. On the following day, the leaves were inoculated with an aqueous suspension of downy mildew sporangia and the plants were kept in high humidity for one day to permit sporangia to germinate and infect the leaf. The plants were then incubated in a growth chamber until disease developed on untreated control plants. Table 1 presents the activity of typical compounds of the present invention when evaluated in these experiments. The effectiveness of the test compounds at controlling disease when sprayed on leaves was determined by assessing the severity of disease on treated plants, then converting the severity to percent control based on the level of disease on untreated, inoculated plants.

The test system of assay [2] is Puccinia recondita tritici (PUCCRT). In words: Leaf rust of wheat foliar protectant test. Particulars: 200 ppm foliar, inoculated one day after treatment, read-out: Activity against fungal diseases PUCCRT. As for the experimental part:
(§1) The plants were inoculated with the fungus one day after treatment. ***=80-100% control; **=50-79% control; *=0-49% control. It will be understood by those in the art that the efficacy of the compounds against the foregoing fungi establishes the general utility of the compounds as fungicides. The activity of the compounds as effective fungicides was determined by applying the compounds to plants and observing control of fungal disease. […] All plants were inoculated with spores of the fungus the day after treatment, then incubated in an environment conducive to disease development. Disease severity was evaluated 4 to 25 days later, depending on the speed of disease development. The following experiments were performed in the laboratory to determine the fungicidal efficacy of the compounds of the invention. […] Each pot contained 3-8 seedlings. These plants were sprayed until wet with the formulated test compounds. On the following day, the leaves were inoculated with an aqueous spore suspension of Puccinia recondita tritici and the plants were kept in high humidity overnight to permit spores to germinate and infect the leaf. The plants were then transferred to a greenhouse until disease developed on untreated control plants. Table 1 presents the activity of typical compounds of the present invention when evaluated in these experiments. The effectiveness of the test compounds at controlling disease when sprayed on leaves was determined by assessing the severity of disease on treated plants, then converting the severity to percent control based on the level of disease on untreated, inoculated plants.

The subject of assay [3] is Magnaporthe grisea = Pyricularia oryzae (PYRIOR). In words: whole plant or invertebrate. Particulars: foliar, read-out: Activity against fungal diseases PYRIOR.
Assay [4] deals with Septoria tritici (SEPTTR). Nature of the assay: Septoria blotch of wheat foliar protectant test. Particulars: Zymoseptoria tritici, read-out: Activity against fungal diseases SEPTTR; for pest or weed control at 200 ppm: 200 ppm foliar, inoculated one day after treatment; for pest or weed control at 25 ppm: foliar, Tested at 25 ppm (footnote b). As for the experimental part: as §1, with “3-10” for “3-8”, “compound.” for “compounds.”, “Septoria” for “Puccinia recondita”, “(one day in a dark dew chamber followed by three days in a lighted dew chamber)” for “overnight”

`COc1cc(C(F)(F)F)cc(Oc2ccc(CCNc3ncnc4c(F)ccc(F)c34)c(C)c2C)n1` [Compound 30]: the pest or weed control at 200 ppm was 50 to 79% in assay [1], 80 to 100% in assay [2], 50 to 79% in assay [3] and 0 to 49% in assay [4].
Regarding `COc1ccc(CCNc2ncnc3c(F)ccc(F)c23)c(F)c1` [Compound 72], the pest or weed control at 200 ppm in assay [1], in assay [2] and in assay [3] was 80 to 100% in each case. Besides, in assay [4], the pest or weed control at 25 ppm lay within 0 to 49%.
For the compound `COc1cc(CCNc2ncnc3c(F)ccc(F)c23)ccc1Oc1ccnc(C(F)(F)F)c1` [Compound 77], the pest or weed control at 200 ppm in assay [1], in assay [2], in assay [3] and in assay [4] was 80 to 100% in each case.
For the compound `Fc1ccc(F)c2c(NCCc3ccc(Oc4c(Cl)cnc(C(F)(F)F)c4Cl)cc3)ncnc12` [Compound 95], the pest or weed control at 200 ppm in assay [1], in assay [2], in assay [3] and in assay [4] was 80 to 100% throughout.
Regarding `Cc1cc(CCNc2ncnc3c(F)ccc(F)c23)ccc1Oc1cc(C(F)(F)F)ncn1` [Compound 117], the pest or weed control at 200 ppm in assay [1], in assay [2] and in assay [3] was 80 to 100% each time. In assay [4], the pest or weed control at 25 ppm is 80 to 100%.
Turning to `Cc1c(O)ccc(CCNc2ncnc3c(F)ccc(F)c23)c1C` [Compound 23], the pest or weed control at 200 ppm was 80 to 100% in assay [1], 50 to 79% in assay [2], 50 to 79% in assay [3] and 0 to 49% in assay [4].
Take `COc1cc(CCNc2ncnc3c(F)cc(F)c(F)c23)ccc1Oc1cc(C(F)(F)F)ccn1` [Compound 34]: the pest or weed control at 200 ppm in assay [1], in assay [2], in assay [3] and in assay [4] was 80 to 100% each time.
In the case of `COc1ccc(CCNc2ncnc3c(F)ccc(F)c23)cc1C` [Compound 21], the pest or weed control at 200 ppm lay in the range of 80 to 100% in assay [1], 50 to 79% in assay [2] and 50 to 79% in assay [3]. Further, the pest or weed control at 25 ppm in assay [4] was in the range of 0 to 49%.
As for `Cc1cc(CCNc2ncnc3c(F)ccc(F)c23)ccc1Oc1cc(C(F)(F)F)ccn1` [Compound 25], the pest or weed control at 200 ppm in assay [1], in assay [2], in assay [3] and in assay [4] was 80 to 100% in each case.
Regarding `COc1cc(C(F)(F)F)cc(Oc2ccc(CCNc3ncnc4c(F)ccc(F)c34)cc2)n1` [Compound 9], the pest or weed control at 200 ppm lay in the range of 80 to 100% in assay [1], 80 to 100% in assay [2], 80 to 100% in assay [3] and 50 to 79% in assay [4].
In the case of `Cc1cc(C(F)(F)F)cc(Oc2ccc(CCNc3ncnc4c(F)ccc(F)c34)cc2)n1` [Compound 7], the pest or weed control at 200 ppm in assay [1], in assay [2], in assay [3] and in assay [4] was 80 to 100% throughout.
Regarding `Fc1ccc(F)c2c(NCCc3ccc(Oc4ccnc(Cl)c4)cc3)ncnc12` [Compound 107], the pest or weed control at 200 ppm in assay [1], in assay [2] and in assay [3] was 80 to 100% each time. Besides, in assay [4], the pest or weed control at 25 ppm fell in the range of 80 to 100%.
For `COC(=O)c1cnc(Oc2ccc(CCNc3ncnc4c(F)ccc(F)c34)cc2)cc1C(F)(F)F` [Compound 28], the pest or weed control at 200 ppm in assay [1], in assay [2] and in assay [3] was 80 to 100% in each case. Also, the pest or weed control at 25 ppm in assay [4] is 80 to 100%.
For the compound `COc1ccc(CCNc2ncnc3c(F)ccc(F)c23)cc1F` [Compound 46], the pest or weed control at 200 ppm in assay [1] fell in the range of 80 to 100%; in assay [2] it was 80 to 100%; in assay [3] it was 0 to 49%; in assay [4], 0 to 49%.
Take `N#Cc1c(Cl)cncc1Oc1ccc(CCNc2ncnc3c(F)ccc(F)c23)cc1` [Compound 129]: the pest or weed control at 200 ppm fell in the range of 80 to 100% in assay [1], 80 to 100% in assay [2], 80 to 100% in assay [3] and 50 to 79% in assay [4].
As to `[O-][n+]1ccc(Oc2ccc(CCNc3ncnc4c(F)ccc(F)c34)cc2)c(C(F)(F)F)c1` [Compound 84], the pest or weed control at 200 ppm in assay [1], in assay [2], in assay [3] and in assay [4] was 80 to 100% each time.
As to `Cc1cc(CCNc2ncnc3c(F)cc(F)c(F)c23)ccc1Oc1cc(C(F)(F)F)ccn1` [Compound 80], the pest or weed control at 200 ppm in assay [1], in assay [2], in assay [3] and in assay [4] was 80 to 100% in each case.
As for `COc1cc(CCNc2ncnc3c(F)ccc(F)c23)ccc1Oc1cc(C(F)(F)F)ncn1` [Compound 112], the pest or weed control at 200 ppm in assay [1], in assay [2] and in assay [3] was 80 to 100% throughout. Further, the pest or weed control at 25 ppm in assay [4] is 80 to 100%.
For `Fc1ccc(F)c2c(NCCc3ccc(Oc4ccncc4C(F)(F)F)cc3)ncnc12` [Compound 83], the pest or weed control at 200 ppm in assay [1], in assay [2], in assay [3] and in assay [4] was 80 to 100% throughout.
Take `Fc1cnc(C(F)(F)F)c(F)c1Oc1ccc(CCNc2ncnc3c(F)ccc(F)c23)cc1` [Compound 48]: the pest or weed control at 200 ppm in assay [1], in assay [2], in assay [3] and in assay [4] was 80 to 100% each time.
As for `Cc1cc(CCNc2ncnc3c(F)ccc(F)c23)ccc1Oc1ccncc1C(F)(F)F` [Compound 37], the pest or weed control at 200 ppm in assay [1] and in assay [2] was 80 to 100% each time. Moreover, in assay [3], the pest or weed control at 3 ppm is 80 to 100%. The pest or weed control at 25 ppm in assay [4] lay in the range of 50 to 79%.
Regarding `Fc1cc(Oc2cc(C(F)(F)F)ncn2)ccc1CCNc1ncnc2c(F)ccc(F)c12` [Compound 116], the pest or weed control at 200 ppm in assay [1], in assay [2] and in assay [3] was 80 to 100% throughout. Also, the pest or weed control at 25 ppm in assay [4] fell in the range of 80 to 100%.
For the compound `COc1cc(CCNc2ncnc3c(F)ccc(F)c23)ccc1Oc1ncc(C(F)(F)F)cc1F` [Compound 45], the pest or weed control at 200 ppm in assay [1] lay within 80 to 100%; in assay [2], 80 to 100%; in assay [3], 0 to 49%; in assay [4] it was 80 to 100%.
